The numbers were not newly measured in US20150320675A1, “Modified Release Osmotic Pump for PH-Responsive Drug Delivery” (UNIVERSITY OF UTAH RESEARCH FOUNDATION, priority 2013, published 2015), which cites them from elsewhere.

Data set [1] addresses reverse transcriptase (Human immunodeficiency virus type 1 group M subtype B, UniProt P04585).
The test system of data set [2] is entry.

As for `Cc1cc(C)cc(C(=O)c2c(C(C)C)c(=O)[nH]c(=O)n2CC2CC2)c1` [IQP-0528, 1-(cyclopropylmethyl)-6-(3,5-dimethylbenzoyl)-5-isopropylpyrimidine-2,4(1H,3H)-dione], the “non-nucleoside reverse transcriptase inhibition activity” value in data set [1] was “potent nanomolar”. Further, the entry inhibition activity result in data set [2] is given as “potent nanomolar”.
